Source: US7229782B1, “Antibodies specific to multiple beta blockers and methods for their use” (LabOne, Inc., priority 2004, dated 2007)

tested on: antibody of the present invention; assay: Interference from other drugs, homogeneous enzyme immunoassay; assay type: binding, rabbit; details: chemical at 10.0 μg/ml urine; cutoff 5.0 μg Atenolol per ml of urine; tested three times
Protocol: Samples were checked for turbidity and growth. A homogeneous enzyme immunoassay was carried out on an Olympus AU-5200 analyzer using the following assay parameters:
Reagent 1 is comprised of a titer of 1–500 dilution of an antibody of the present invention, 11.25 mM NAD+, 11.25 mM G6P, 0.1% w/v sodium azide and 100 mM Tris.
Reagent 2 is comprised of a titer of 1–2000 dilution of a G6PDH-beta blocker conjugate, 0.1% w/v sodium azide, and 50 mM Tris.
A homogenous calibrator containing sodium azide was used to calibrate the analyzer prior to each run.
The analytical cutoff for the test was set at 5.0 μg Atenolol per ml of urine. The result was scored as a positive if the signal strength was greater than that produced by 5.0 μg Atenolol per ml of urine.
Interference from other drugs was tested using fifty-five (55) frequently used chemicals and medicines, at concentrations of 10.0 μg/ml urine.
The samples were tested three times, following the procedures used in Example 3.

Question: For `CCC(=O)C(CC(C)N(C)C)(c1ccccc1)c1ccccc1` (racemic) [Methadone (DL-)], which “Beta-Blocker Pos./Neg.” value is on record?
Answer: Neg. (scored as a positive if the signal strength was greater than that produced by 5.0 μg Atenolol per ml of urine)

Question: Which “Beta-Blocker Pos./Neg.” value does the source give for `CN1C(=O)CC[C@H]1c1cccnc1` [(−)-Cotinine] here?
Answer: Neg. (scored as a positive if the signal strength was greater than that produced by 5.0 μg Atenolol per ml of urine)

Question: For `CC(=O)Oc1ccccc1C(=O)O` [Acetylsalicylic Acid], which “Beta-Blocker Pos./Neg.” value is on record?
Answer: Neg. (scored as a positive if the signal strength was greater than that produced by 5.0 μg Atenolol per ml of urine)

Question: Which “Beta-Blocker Pos./Neg.” value does the source give for `Cc1nnc2n1-c1ccc(Cl)cc1C(c1ccccc1)=NC2` [Alprazolam] here?
Answer: Neg. (scored as a positive if the signal strength was greater than that produced by 5.0 μg Atenolol per ml of urine)

Question: `C[C@H](N)Cc1ccccc1` [Amphetamine (D-)] was tested. Which “Beta-Blocker Pos./Neg.” value did it give?
Answer: Neg. (scored as a positive if the signal strength was greater than that produced by 5.0 μg Atenolol per ml of urine)

Question: `CC1(C)S[C@@H]2[C@H](NC(=O)[C@H](N)c3ccccc3)C(=O)N2[C@H]1C(=O)O` [Ampicillin] was tested. Which “Beta-Blocker Pos./Neg.” value did it give?
Answer: Neg. (scored as a positive if the signal strength was greater than that produced by 5.0 μg Atenolol per ml of urine)

Question: Which “Beta-Blocker Pos./Neg.” value does the source give for `CN1[C@H]2CC[C@@H]1[C@@H](C(=O)O)[C@@H](OC(=O)c1ccccc1)C2` [Benzoylecgonine] here?
Answer: Neg. (scored as a positive if the signal strength was greater than that produced by 5.0 μg Atenolol per ml of urine)

Question: How did the “Beta-Blocker Pos./Neg.” value turn out when `C=CCC1(CC(C)C)C(=O)NC(=O)NC1=O` [Butalbital] was run?
Answer: Neg. (scored as a positive if the signal strength was greater than that produced by 5.0 μg Atenolol per ml of urine)

Question: Which “Beta-Blocker Pos./Neg.” value does the source give for `Cn1c(=O)c2c(ncn2C)n(C)c1=O` [Caffeine] here?
Answer: Neg. (scored as a positive if the signal strength was greater than that produced by 5.0 μg Atenolol per ml of urine)

Question: How did the “Beta-Blocker Pos./Neg.” value turn out when `CN(C)CCCN1c2ccccc2Sc2ccc(Cl)cc21` [Chlorpromazine] was run?
Answer: Neg. (scored as a positive if the signal strength was greater than that produced by 5.0 μg Atenolol per ml of urine)

Question: With `O=C1CN=C(c2ccccc2Cl)c2cc([N+](=O)[O-])ccc2N1` [Clonazepam] as the compound, how does the “Beta-Blocker Pos./Neg.” value read?
Answer: Neg. (scored as a positive if the signal strength was greater than that produced by 5.0 μg Atenolol per ml of urine)

Question: For `O=C(O)C1N=C(c2ccccc2)c2cc(Cl)ccc2NC1=O` (stereo not drawn) [Clorazepate], which “Beta-Blocker Pos./Neg.” value is on record?
Answer: Neg. (scored as a positive if the signal strength was greater than that produced by 5.0 μg Atenolol per ml of urine)

Question: `CCOC(=O)[C@@H]1C2CCC(C[C@@H]1OC(=O)c1ccccc1)N2C` (stereo partly drawn) [Cocainethylene] was tested. Which “Beta-Blocker Pos./Neg.” value did it give?
Answer: Neg. (scored as a positive if the signal strength was greater than that produced by 5.0 μg Atenolol per ml of urine)

Question: For `COc1ccc2c3c1O[C@H]1[C@@H](O)C=C[C@H]4[C@@H](C2)N(C)CC[C@@]341` [Codeine], which “Beta-Blocker Pos./Neg.” value is on record?
Answer: Neg. (scored as a positive if the signal strength was greater than that produced by 5.0 μg Atenolol per ml of urine)

Question: How did the “Beta-Blocker Pos./Neg.” value turn out when `COc1ccc2c(c1)[C@]13CCCC[C@@H]1[C@H](C2)N(C)CC3` [Dextromethorphan] was run?
Answer: Neg. (scored as a positive if the signal strength was greater than that produced by 5.0 μg Atenolol per ml of urine)

Question: Which “Beta-Blocker Pos./Neg.” value does the source give for `COC(=O)[C@@H]1[C@H]2CC[C@@H](C[C@@H]1O)N2C.Cl` [Ecgonine Methyl Ester Hydrochloride] here?
Answer: Neg. (scored as a positive if the signal strength was greater than that produced by 5.0 μg Atenolol per ml of urine)

Question: `CN[C@@H](C)[C@H](O)c1ccccc1` [Ephedrine (L-)] was tested. Which “Beta-Blocker Pos./Neg.” value did it give?
Answer: Neg. (scored as a positive if the signal strength was greater than that produced by 5.0 μg Atenolol per ml of urine)

Question: Which “Beta-Blocker Pos./Neg.” value does the source give for `CN[C@@H](C)[C@H](O)c1ccccc1.Cl` [Ephedrine Hydrochloride (1R,2S)-(−)] here?
Answer: Neg. (scored as a positive if the signal strength was greater than that produced by 5.0 μg Atenolol per ml of urine)

Question: With `CC(C(=O)O)c1cccc(Oc2ccccc2)c1` (stereo not drawn) [Fenoprofen] as the compound, how does the “Beta-Blocker Pos./Neg.” value read?
Answer: Neg. (scored as a positive if the signal strength was greater than that produced by 5.0 μg Atenolol per ml of urine)

Question: `Cc1ccc(C)c(OCCCC(C)(C)C(=O)O)c1` [Gemfibrozil] was tested. Which “Beta-Blocker Pos./Neg.” value did it give?
Answer: Neg. (scored as a positive if the signal strength was greater than that produced by 5.0 μg Atenolol per ml of urine)

Question: For `O=C(O)c1cc(O)ccc1O` [Gentisic Acid], which “Beta-Blocker Pos./Neg.” value is on record?
Answer: Neg. (scored as a positive if the signal strength was greater than that produced by 5.0 μg Atenolol per ml of urine)

Question: How did the “Beta-Blocker Pos./Neg.” value turn out when `COc1ccc2c3c1O[C@H]1C(=O)CC[C@H]4[C@@H](C2)N(C)CC[C@]314` [Hydrocodone] was run?
Answer: Neg. (scored as a positive if the signal strength was greater than that produced by 5.0 μg Atenolol per ml of urine)

Question: For `CC(C)Cc1ccc(C(C)C(=O)O)cc1` (stereo not drawn) [Ibuprofen], which “Beta-Blocker Pos./Neg.” value is on record?
Answer: Neg. (scored as a positive if the signal strength was greater than that produced by 5.0 μg Atenolol per ml of urine)

Question: How did the “Beta-Blocker Pos./Neg.” value turn out when `CN(C)CCCN1c2ccccc2CCc2ccccc21` [Imipramine] was run?
Answer: Neg. (scored as a positive if the signal strength was greater than that produced by 5.0 μg Atenolol per ml of urine)

Question: `CCN(CC)CC(=O)Nc1c(C)cccc1C` [Lidocaine] was tested. Which “Beta-Blocker Pos./Neg.” value did it give?
Answer: Neg. (scored as a positive if the signal strength was greater than that produced by 5.0 μg Atenolol per ml of urine)

Question: For `CN[C@@H](C)Cc1ccccc1` [Methamphetamine (D-)], which “Beta-Blocker Pos./Neg.” value is on record?
Answer: Neg. (scored as a positive if the signal strength was greater than that produced by 5.0 μg Atenolol per ml of urine)

Question: `C=CCN1CC[C@]23c4c5ccc(O)c4O[C@H]2[C@@H](O)C=C[C@H]3[C@H]1C5` [Nalorphine] was tested. Which “Beta-Blocker Pos./Neg.” value did it give?
Answer: Neg. (scored as a positive if the signal strength was greater than that produced by 5.0 μg Atenolol per ml of urine)

Question: With `COc1ccc2cc([C@H](C)C(=O)O)ccc2c1` [Naproxen] as the compound, how does the “Beta-Blocker Pos./Neg.” value read?
Answer: Neg. (scored as a positive if the signal strength was greater than that produced by 5.0 μg Atenolol per ml of urine)

Question: For `NC(=O)c1cccnc1` [Niacinamide], which “Beta-Blocker Pos./Neg.” value is on record?
Answer: Neg. (scored as a positive if the signal strength was greater than that produced by 5.0 μg Atenolol per ml of urine)

Question: How did the “Beta-Blocker Pos./Neg.” value turn out when `CCCC(C)C1(CC)C(=O)NC(=O)NC1=O` (stereo not drawn) [Pentobarbital] was run?
Answer: Neg. (scored as a positive if the signal strength was greater than that produced by 5.0 μg Atenolol per ml of urine)

Question: With `c1ccc(C2(N3CCCCC3)CCCCC2)cc1` [Phencyclidine] as the compound, how does the “Beta-Blocker Pos./Neg.” value read?
Answer: Neg. (scored as a positive if the signal strength was greater than that produced by 5.0 μg Atenolol per ml of urine)

Question: How did the “Beta-Blocker Pos./Neg.” value turn out when `NCCc1ccccc1` [Phenethylamine (beta-)] was run?
Answer: Neg. (scored as a positive if the signal strength was greater than that produced by 5.0 μg Atenolol per ml of urine)

Question: Which “Beta-Blocker Pos./Neg.” value does the source give for `CNC[C@H](O)c1cccc(O)c1` [Phenylephrine] here?
Answer: Neg. (scored as a positive if the signal strength was greater than that produced by 5.0 μg Atenolol per ml of urine)

Question: Which “Beta-Blocker Pos./Neg.” value does the source give for `CC(N)C(O)c1ccccc1` (stereo not drawn) [Phenylpropanolamine] here?
Answer: Neg. (scored as a positive if the signal strength was greater than that produced by 5.0 μg Atenolol per ml of urine)

Question: Which “Beta-Blocker Pos./Neg.” value does the source give for `CCN(CC)CCNC(=O)c1ccc(N)cc1` [Procainamide] here?
Answer: Neg. (scored as a positive if the signal strength was greater than that produced by 5.0 μg Atenolol per ml of urine)

Question: `CCN(CC)CCOC(=O)c1ccc(N)cc1` [Procaine] was tested. Which “Beta-Blocker Pos./Neg.” value did it give?
Answer: Neg. (scored as a positive if the signal strength was greater than that produced by 5.0 μg Atenolol per ml of urine)

Question: `CN[C@@H](C)[C@@H](O)c1ccccc1` [Pseudoephedrine] was tested. Which “Beta-Blocker Pos./Neg.” value did it give?
Answer: Neg. (scored as a positive if the signal strength was greater than that produced by 5.0 μg Atenolol per ml of urine)

Question: `C=C[C@H]1C[N@@]2CC[C@H]1C[C@@H]2[C@@H](O)c1ccnc2ccc(OC)cc12` [Quinidine] was tested. Which “Beta-Blocker Pos./Neg.” value did it give?
Answer: Neg. (scored as a positive if the signal strength was greater than that produced by 5.0 μg Atenolol per ml of urine)

Question: For `CN1C(=O)C(O)N=C(c2ccccc2)c2cc(Cl)ccc21` (stereo not drawn) [Temazepam], which “Beta-Blocker Pos./Neg.” value is on record?
Answer: Neg. (scored as a positive if the signal strength was greater than that produced by 5.0 μg Atenolol per ml of urine)

Question: With `Cn1c(=O)c2[nH]cnc2n(C)c1=O` [Theophylline] as the compound, how does the “Beta-Blocker Pos./Neg.” value read?
Answer: Neg. (scored as a positive if the signal strength was greater than that produced by 5.0 μg Atenolol per ml of urine)

Question: How did the “Beta-Blocker Pos./Neg.” value turn out when `Cc1cc(CC(=O)O)n(C)c1C(=O)c1ccc(Cl)cc1` [Zomepirac] was run?
Answer: Neg. (scored as a positive if the signal strength was greater than that produced by 5.0 μg Atenolol per ml of urine)

Question: For (−)-11-NOR-9-Carboxy-Delta9-THC, which “Beta-Blocker Pos./Neg.” value is on record?
Answer: Neg. (scored as a positive if the signal strength was greater than that produced by 5.0 μg Atenolol per ml of urine)

Question: Ecgonine Hydrochloride was tested. Which “Beta-Blocker Pos./Neg.” value did it give?
Answer: Neg. (scored as a positive if the signal strength was greater than that produced by 5.0 μg Atenolol per ml of urine)

Question: With PCP as the compound, how does the “Beta-Blocker Pos./Neg.” value read?
Answer: Neg. (scored as a positive if the signal strength was greater than that produced by 5.0 μg Atenolol per ml of urine)

Question: Which “Beta-Blocker Pos./Neg.” value does the source give for Penicillin here?
Answer: Neg. (scored as a positive if the signal strength was greater than that produced by 5.0 μg Atenolol per ml of urine)
